Consider 10 compounds from patent publication US9771369B2, “Compounds and methods for kinase modulation, and indications therefor” (Plexxikon Inc., priority 2014, dated 2017).

Each structure is given as a SMILES string. Bounds are passed on as bounds.

Experiment [1] deals with c-Kit kinase (Homo sapiens (Human), UniProt P10721). The experiment is described as follows: c-Kit biochemical assay (AlphaScreen kinase activity). An outline of the steps:
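IC50 values come from 8-point, 1:3 compound titrations measuring inhibition of peptide phosphorylation by c-Kit (commercial or His-tagged E. coli-expressed) over 1 h at room temperature, read by AlphaScreen PY30/streptavidin beads. Low-ATP version: 10 μM ATP, 100 nM biotin-(E4Y)3; high-ATP version: 100 μM ATP, 30 nM biotin-(E4Y)10.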
(In general: Bead proximity is the source of the signal in Alpha formats.)

Experiment [2] relates to BaF3-FL KIT D816V or BaF3-FL KIT V560G/D816V cell line. Put plainly: Cell-based assays of c-Kit mutant kinase activity (cell proliferation, ATPlite). As to conditions: at least one of the c-kit cell assays of Example 7. The method in brief: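 BaF3 cells dependent on transfected full-length human KIT D816V or V560G/D816V (pCI-Neo, CMV promoter) were seeded at 1×10^4 cells/well and exposed to 8-point 1:3 dilutions from 10 μM top (0.2% DMSO) for three days at 37° C. ATPlite luminescence gave cell number; IC50 from concentration-response.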
For orientation: ATP-based viability assays read luminescence as a measure of living cells.

Sequence of c-Kit kinase (P10721 26-976): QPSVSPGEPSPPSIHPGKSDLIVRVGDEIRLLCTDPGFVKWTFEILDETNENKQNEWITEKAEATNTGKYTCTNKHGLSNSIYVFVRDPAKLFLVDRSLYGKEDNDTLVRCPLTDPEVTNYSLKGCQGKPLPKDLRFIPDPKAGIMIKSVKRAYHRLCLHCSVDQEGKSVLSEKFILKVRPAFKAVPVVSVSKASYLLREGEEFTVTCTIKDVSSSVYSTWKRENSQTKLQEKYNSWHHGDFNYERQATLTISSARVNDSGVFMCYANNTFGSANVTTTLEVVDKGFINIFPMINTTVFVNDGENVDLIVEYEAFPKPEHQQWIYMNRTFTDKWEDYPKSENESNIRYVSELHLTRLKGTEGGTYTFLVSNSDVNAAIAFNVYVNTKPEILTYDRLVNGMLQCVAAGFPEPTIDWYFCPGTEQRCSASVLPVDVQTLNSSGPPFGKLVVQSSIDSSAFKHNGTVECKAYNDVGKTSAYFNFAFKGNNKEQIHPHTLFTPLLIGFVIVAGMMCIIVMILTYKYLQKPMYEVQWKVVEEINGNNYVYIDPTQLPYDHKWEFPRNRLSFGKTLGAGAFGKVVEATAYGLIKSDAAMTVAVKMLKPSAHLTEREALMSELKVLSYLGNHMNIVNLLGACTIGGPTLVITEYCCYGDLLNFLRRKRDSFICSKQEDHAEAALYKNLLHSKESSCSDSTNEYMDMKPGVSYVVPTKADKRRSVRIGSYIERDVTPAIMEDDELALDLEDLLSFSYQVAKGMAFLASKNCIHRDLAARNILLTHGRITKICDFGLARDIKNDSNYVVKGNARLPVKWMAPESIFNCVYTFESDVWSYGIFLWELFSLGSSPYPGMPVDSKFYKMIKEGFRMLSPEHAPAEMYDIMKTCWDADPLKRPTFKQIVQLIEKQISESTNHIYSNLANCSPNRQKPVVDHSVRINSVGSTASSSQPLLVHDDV

On to `COc1cc(-c2cc3c(N4CCC(c5nc(C)c(-c6cccc(OC(F)(F)F)c6)[nH]5)CC4)ncnc3[nH]2)ccn1` [P-3014, 6-(2-methoxy-4-pyridyl)-4-[4-[4-methyl-5-[3-(trifluoromethoxy)phenyl]-1H-imidazol-2-yl]-1-piperidyl]-7H-pyrrolo[2,3-d]pyrimidine], for which the IC50 – broadly, the concentration that inhibits the measured activity by half – in experiment [1] is 1 to 10 µM; in experiment [2], under 10000 nM.
For `COc1ccc(-c2[nH]c(C3CCN(c4ncnc5[nH]c(-c6ccc(C#N)cc6)cc45)CC3)nc2C)cc1` [P-3015, 4-[4-[4-[5-(4-methoxyphenyl)-4-methyl-1H-imidazol-2-yl]-1-piperidyl]-7H-pyrrolo[2,3-d]pyrimidin-6-yl]benzonitrile], the values for the IC50 in experiment [1] and in experiment [2] were 0.0001 to 1 µM and under 10000 nM, respectively.
With `Cc1nc(C2CCN(c3ncnc4[nH]c(-c5ccc(C#N)cc5)cc34)CC2)[nH]c1-c1cccc(F)c1` [P-3016, 4-[4-[4-[5-(3-fluorophenyl)-4-methyl-1H-imidazol-2-yl]-1-piperidyl]-7H-pyrrolo[2,3-d]pyrimidin-6-yl]benzonitrile], the IC50 is 1 to 10 µM in experiment [1] and under 10000 nM in experiment [2].
For `COc1ccc(-c2[nH]c(C3CCN(c4ncnc5[nH]c(-c6ccnc(OC)c6)cc45)CC3)nc2C)cc1` [P-3017, 4-[4-[5-(4-methoxyphenyl)-4-methyl-1H-imidazol-2-yl]-1-piperidyl]-6-(2-methoxy-4-pyridyl)-7H-pyrrolo[2,3-d]pyrimidine] the same measures were 0.0001 to 1 µM and under 10000 nM.
For `COc1ccc(-c2[nH]c(C3CCN(c4ncnc5[nH]c(-c6ccc(C#N)cc6)cc45)CC3)nc2C)cc1F` [P-3018, 4-[4-[4-[5-(3-fluoro-4-methoxy-phenyl)-4-methyl-1H-imidazol-2-yl]-1-piperidyl]-7H-pyrrolo[2,3-d]pyrimidin-6-yl]benzonitrile] the same measures were 1 to 10 µM and under 10000 nM.
For `CCOc1ccc(-c2[nH]c(C3(C)CCN(c4ncnc5[nH]c(-c6ccc(OC)nc6)cc45)CC3)nc2C)cc1` [P-3171, 4-[4-[5-(4-ethoxyphenyl)-4-methyl-1H-imidazol-2-yl]-4-methyl-1-piperidyl]-6-(6-methoxy-3-pyridyl)-7H-pyrrolo[2,3-d]pyrimidine] the same measures were 0.0001 to 1 µM and under 10000 nM.
Turning to `COc1ccc(-c2[nH]c(C3(C)CCN(c4ncnc5[nH]c(-c6ccc(C#N)cc6)cc45)CC3)nc2C)cn1` [P-3172, 4-[4-[4-[5-(6-methoxy-3-pyridyl)-4-methyl-1H-imidazol-2-yl]-4-methyl-1-piperidyl]-7H-pyrrolo[2,3-d]pyrimidin-6-yl]benzonitrile], the IC50 in experiment [1] is 0.0001 to 1 µM; in experiment [2] it was under 10000 nM.
The like results for `COc1ncc(-c2[nH]c(C3CCN(c4ncnc5[nH]c(-c6ccc(C#N)cc6)cc45)CC3)nc2C)cc1F` [P-3173, 4-[4-[4-[5-(5-fluoro-6-methoxy-3-pyridyl)-4-methyl-1H-imidazol-2-yl]-1-piperidyl]-7H-pyrrolo[2,3-d]pyrimidin-6-yl]benzonitrile] were, in that order, 0.0001 to 1 µM and under 10000 nM.
The like results for `Cc1nc(C2(C)CCN(c3ncnc4[nH]c(-c5cnn(C(F)F)c5)cc34)CC2)[nH]c1-c1ccc(Cl)cc1` [P-3175, 4-[4-[5-(4-chlorophenyl)-4-methyl-1H-imidazol-2-yl]-4-methyl-1-piperidyl]-6-[1-(difluoromethyl)pyrazol-4-yl]-7H-pyrrolo[2,3-d]pyrimidine] were, in that order, 0.0001 to 1 µM and under 10000 nM.
For the compound `COc1ccc(-c2cc3c(N4CCC(C)(c5nc(C)c(-c6ccc(Cl)cc6)[nH]5)CC4)ncnc3[nH]2)cn1` [P-3176, 4-[4-[5-(4-chlorophenyl)-4-methyl-1H-imidazol-2-yl]-4-methyl-1-piperidyl]-6-(6-methoxy-3-pyridyl)-7H-pyrrolo[2,3-d]pyrimidine], the values for the IC50 in experiment [1] and in experiment [2] were 0.0001 to 1 µM and under 10000 nM, respectively.
